What all share (type): biochemical
In assay [1] the target is T1, yeast 20S proteasome (yCP) β2 subunit (TL) (Saccharomyces cerevisiae, UniProt P25043).
T1 construct: gene PUP1; yeast 20S proteasome core particle
T1 sequence (P25043 30-261): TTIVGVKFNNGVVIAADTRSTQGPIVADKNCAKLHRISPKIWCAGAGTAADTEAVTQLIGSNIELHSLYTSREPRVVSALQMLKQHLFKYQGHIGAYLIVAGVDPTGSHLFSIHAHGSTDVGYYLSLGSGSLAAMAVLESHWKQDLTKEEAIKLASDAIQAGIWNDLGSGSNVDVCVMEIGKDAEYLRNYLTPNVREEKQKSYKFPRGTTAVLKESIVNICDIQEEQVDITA
Put plainly: X-ray crystal structure ([…] Å), mM soaking; weaker TL inhibition.

The target of assay [2] is T2, yeast 20S proteasome (yCP) β5 subunit (ChTL) (Saccharomyces cerevisiae, UniProt P23724+P30656).
T2 construct: gene PRE2; yeast 20S proteasome core particle; with β6 subunit of yCP
T2 sequence (P30656 76-287): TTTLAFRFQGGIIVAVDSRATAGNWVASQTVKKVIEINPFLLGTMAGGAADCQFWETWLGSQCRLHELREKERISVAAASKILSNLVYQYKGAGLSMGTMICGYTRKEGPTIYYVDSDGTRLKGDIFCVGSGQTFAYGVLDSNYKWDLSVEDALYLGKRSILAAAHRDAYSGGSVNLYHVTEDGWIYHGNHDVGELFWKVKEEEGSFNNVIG
T2 sequence (P23724 20-241): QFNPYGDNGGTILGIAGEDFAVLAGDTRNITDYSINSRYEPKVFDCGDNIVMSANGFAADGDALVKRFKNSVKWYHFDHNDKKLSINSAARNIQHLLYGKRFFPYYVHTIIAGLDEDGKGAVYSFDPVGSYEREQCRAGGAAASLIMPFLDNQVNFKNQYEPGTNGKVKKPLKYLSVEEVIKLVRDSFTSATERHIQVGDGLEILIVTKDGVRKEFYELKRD
Put plainly: X-ray crystal structure ([…] Å) and ChTL activity inhibition assay of yCP.

Assay [3] has as its target T2, yeast 20S proteasome (yCP) β5 subunit (ChTL). The assay is described as above. The source holds these as a separate data set.
In assay [4] the target is T1, yeast 20S proteasome (yCP) β2 subunit (TL). Put plainly: X-ray crystal structure ([…] Å), mM soaking; weaker TL inhibition. The source holds these as a separate data set.

Structures are written as SMILES. Where two headings read alike, the source gives them in different places. Where only a bound is given, the exact number is not on record here.

`CC1C=CC(=O)NCCC(O)CC(NC(=O)C(NC(=O)C=Cc2ccccc2)C(C)O)C(=O)N1` (stereo not shown) [compound 5]: the figures for the IC50 in assay [1] and in assay [2] were over 200 nM and 107 nM, respectively.
Take `CC1C=CC(=O)NCCC(O)CC(NC(=O)C(NC(=O)C=CC=Cc2ccccc2)C(C)O)C(=O)N1` (stereo not shown) [compound 4]: the results for the half-maximal inhibitory concentration (IC50) in assay [3] and in assay [4] were 73 nM and over 200 nM, respectively.

The values above are taken from PMC8248439, “Activation, Structure, Biosynthesis and Bioactivity of Glidobactin‐like Proteasome Inhibitors from Photorhabdus laumondii” (Chembiochem, 2021).
